Data taken from PubChem BioAssay (NCI).
“And” between values parts separate entries of the source, which are not always exact repeats. Identical values can stand only once.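 Growth conditions: 96-well plates. Treatment: test compound, 48 hours, 5 concentrations. Analysis: linear interpolation between bracketing concentrations; unreached endpoints set to highest concentration. GI50 = concentration required for 50% inhibition of growth. The concentration for full growth arrest is given as TGI.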

Legend:
Assay in all cases: inhibition of tumour cell growth, NCI panel, 48 h
PC-3 prostate = test system: PC-3 prostate
HOP-62 NSCLC = test system: HOP-62 NSCLC
EKVX NSCLC = test system: EKVX NSCLC
SR leukemia = test system: SR leukemia
SW-620 colon = test system: SW-620 colon
UO-31 renal = test system: UO-31 renal
CAKI-1 renal = test system: CAKI-1 renal
OVCAR-4 ovarian = test system: OVCAR-4 ovarian

Compound	GI50 (PC-3 prostate)	TGI (PC-3 prostate)	GI50 (HOP-62 NSCLC)	TGI (HOP-62 NSCLC)	GI50 (EKVX NSCLC)	TGI (EKVX NSCLC)	GI50 (SR leukemia)	TGI (SR leukemia)	GI50 (SW-620 colon)	TGI (SW-620 colon)	GI50 (UO-31 renal)	TGI (UO-31 renal)	GI50 (CAKI-1 renal)	TGI (CAKI-1 renal)	GI50 (OVCAR-4 ovarian)	TGI (OVCAR-4 ovarian)
COc1ccc(NC(=O)n2nc(/C=C\c3ccc(O)c(OC)c3)cc2/C=C\c2ccc(O)c(OC)c2)cc1	5.11 µM	> 100 µM	3.65 µM	42.8 µM	6.62 µM	83.7 µM	1.52 µM	12.8 µM	5.51 µM	61.6 µM	1.52 µM	36.4 µM	3.6 µM	> 100 µM	5.72 µM	90.7 µM
CNCCNc1nc2ccccc2c2c(=O)c3cc(OC)ccc3sc12	1.47 µM	2.94 µM	1.49 µM	3.22 µM	1.69 µM	3.16 µM	1.74 µM	4.23 µM	1.41 µM	2.91 µM	1.29 µM	2.6 µM	1.5 µM	2.97 µM	1.68 µM	3.22 µM
COC(=O)[C@H]1[C@H]2C[C@@H]3c4[nH]c5cc(OC)ccc5c4CCN3C[C@H]2C[C@@H](OC(=O)/C=C/c2cc(OC)c(OC)c(OC)c2)[C@@H]1OC	6.91 µM	> 100 µM	5.99 µM	25.5 µM	14.1 µM	> 100 µM	2.48 µM	6.63 µM	8.47 µM	> 100 µM	9.63 µM	33.5 µM	3.97 µM	26.8 µM	3.39 µM	11.2 µM
COc1ccc([C@@H](O)c2cc(-c3ncnc4cc(N5CCOCC5)ccc34)c(F)cc2Cl)nn1	0.865 µM	30.9 µM	12.5 µM	> 100 µM	5.35 µM	42.9 µM	7.06 µM	34.6 µM	6.78 µM	52.2 µM	0.646 µM	23 µM	1.99 µM	> 100 µM	6.12 µM	> 100 µM
CCCCCCNC(=O)Oc1ccc(/C(=C(/C)Cc2ccc(OC)cc2)c2ccc(OCCN(C)C)cc2)cc1	1.66 µM	5.96 µM	6.18 µM	11 µM	4.91 µM	10.1 µM	1.32 µM	6.55 µM	4.86 µM	9.59 µM	3.87 µM	8.03 µM	5.39 µM	9.95 µM	5.02 µM	10.3 µM
COc1cc2c3c(ncc2c(OC)c1OC)-c1cc2c(cc1C3)OCO2	> 100 µM	> 100 µM			17.2 µM	73.9 µM	0.25 µM	17.6 µM	66.4 µM	> 100 µM	19.8 µM	68 µM	42.5 µM	> 100 µM	54 µM	> 100 µM
COc1nc(C)cc2c(=O)n(-c3ccccc3)n(CC(O)CN3CCN(c4ccc(Cl)cc4)CC3)c(=O)c12 (stereo not drawn)	25.9 µM	> 50 µM	37.9 µM	> 50 µM	> 50 µM	> 50 µM	> 50 µM	> 50 µM	> 50 µM	> 50 µM	46.6 µM	> 50 µM	> 50 µM	> 50 µM	36.8 µM	> 50 µM
CCCCCCNC(=O)n1cc(F)c(=O)[nH]c1=O	10.1 µM	27.3 µM	7.09 µM	21.5 µM	21.1 µM	> 100 µM	1.44 µM	21.3 µM	3.48 µM	20.7 µM			1.64 µM	18.4 µM	14 µM	39.1 µM
C/C=C(/C)c1cnc(CC(C)C)c(=O)[nH]1		> 100 µM		> 100 µM		> 100 µM		> 100 µM		> 100 µM		> 100 µM		> 100 µM		> 100 µM
CC(=O)c1cc(-c2ccccc2N)n(-c2ccc3c(c2)OCO3)c1C	0.317 µM	> 100 µM	0.435 µM	> 100 µM	0.392 µM	> 100 µM	0.223 µM	19.1 µM	0.184 µM	> 100 µM	0.696 µM	45.5 µM	0.406 µM	83.7 µM	0.924 µM	> 100 µM
COc1cc2c(c(OC)c1OC)-c1ccc(O)c(=O)cc1[C@@H](NC(C)=O)CC2	15.1 µM	> 100 µM	10.7 µM	> 100 µM and 65.9 µM		> 100 µM	4.74 µM	97.9 µM and 18.1 µM	7 µM	> 100 µM and 82.5 µM	4.42 µM	63.8 µM and 89 µM	4.91 µM	> 100 µM and 37.5 µM	3.64 µM	> 100 µM and 66.1 µM
Cc1cc(=O)oc2cc(OC(=O)N(CCCl)CCCl)ccc12		> 100 µM		> 100 µM		> 100 µM		> 100 µM		> 100 µM		> 100 µM		> 100 µM		> 100 µM
Clc1ccc2c(c1)C(N1CCNCC1)=Nc1ccccc1O2	1.54 µM	8.74 µM	2.01 µM	4.66 µM	3.47 µM	17.4 µM	1.66 µM	4.3 µM	1.62 µM	3.15 µM	1.64 µM	10.6 µM	2.2 µM	7.83 µM	2.45 µM	8.72 µM
COc1cc(/C=C2\CN(C(=O)CCN3CCC(=NO)CC3)C/C(=C\c3cc(OC)c(OC)c(OC)c3)C2=O)cc(OC)c1OC	0.298 µM	1.12 µM	0.719 µM	2.39 µM	1.82 µM	4.81 µM	0.255 µM	> 27.7 µM	0.273 µM	0.86 µM	1.11 µM	2.51 µM	0.837 µM	2.34 µM	0.733 µM	2.15 µM
CSc1nsc(S/C=C\C(=O)c2ccc(C)cc2)n1	29 µM	> 57.6 µM	21 µM	43.8 µM	22.5 µM	49.7 µM	1.25 µM	5.61 µM	1.3 µM	17.8 µM	15.1 µM	> 62.8 µM	21.8 µM	51.5 µM	20.8 µM	> 58.9 µM
CCOC(=O)c1c2c(n(Cc3ccccc3)c1C)-c1nc(Cc3ccccc3)[nH]c1C(=O)C2=O	1.45 µM	3.2 µM	1.75 µM	3.45 µM	1.84 µM	3.27 µM	1.65 µM	4.02 µM	1.84 µM	3.28 µM	1.32 µM	2.64 µM	0.673 µM	2.18 µM	1.03 µM	2.76 µM

Compound	GI50 (PC-3 prostate)	TGI (PC-3 prostate)	GI50 (HOP-62 NSCLC)	TGI (HOP-62 NSCLC)	GI50 (EKVX NSCLC)	TGI (EKVX NSCLC)	GI50 (SR leukemia)	TGI (SR leukemia)	GI50 (SW-620 colon)	TGI (SW-620 colon)	GI50 (UO-31 renal)	TGI (UO-31 renal)	GI50 (CAKI-1 renal)	TGI (CAKI-1 renal)	GI50 (OVCAR-4 ovarian)	TGI (OVCAR-4 ovarian)
CCCCNC(=O)Oc1ccc(/C(=C(/CC)Cc2ccccc2)c2ccc(OCCN3CCCCCC3)cc2)cc1	33.2 µM	> 100 µM	70.8 µM	> 100 µM	76.8 µM	> 100 µM	14.6 µM	41.1 µM	20.5 µM	42.5 µM	18.9 µM	46.3 µM	19.3 µM	44.7 µM	19.2 µM	51.3 µM
Cc1nn(CNc2ccccc2C(F)(F)F)c(=S)n1/N=C/c1ccc(F)cc1	97.9 µM	> 100 µM	> 100 µM	> 100 µM	42 µM	> 100 µM	12.3 µM	51.6 µM	> 100 µM	> 100 µM	> 100 µM	> 100 µM	> 100 µM	> 100 µM	23.3 µM	70.6 µM
COc1cc2ncnc3c2cc1OCCCCCN(C)Cc1ccc(Br)cc1N3	4.65 µM and 3.85 µM	> 100 µM	21.7 µM and 8.36 µM	> 100 µM	0.24 µM	> 10 µM	9.25 µM and 3.38 µM	> 100 µM	6.31 µM and 5.72 µM	> 100 µM	0.285 µM and 0.267 µM	> 100 µM	0.288 µM and 0.375 µM	> 100 µM	2.57 µM and 1.34 µM	43.1 µM and > 10 µM
Oc1c(CN2CCCC2)cc(CSCc2ccccc2)c2cccnc12	1.55 µM	14 µM	0.513 µM	7.78 µM	1.99 µM	11.9 µM	0.392 µM	2.32 µM	0.797 µM	11.2 µM	0.103 µM	1.38 µM	0.0774 µM	1.47 µM	0.456 µM	2.47 µM
COC(=O)C(=O)C(C(=O)C(N)=O)c1nc2ccc(C(=O)c3ccccc3)cc2[nH]c1=O (stereo not drawn)		> 100 µM		> 100 µM		> 100 µM		> 100 µM		> 100 µM				> 100 µM		> 100 µM
CC(C(=O)O)c1ccc(-c2ccccc2)c(F)c1 (stereo not drawn)		> 100 µM		> 100 µM		> 100 µM		> 100 µM		> 100 µM		> 100 µM		> 100 µM		> 100 µM
O=C(Nc1ccc(Br)cc1)Nc1nn(C(=O)Nc2ccc(Br)cc2)c2ccccc12	> 51.6 µM	> 100 µM	26.4 µM	> 72.8 µM	40.3 µM	> 100 µM	30.5 µM	> 100 µM	> 38.6 µM	> 100 µM	> 100 µM	> 100 µM	44.2 µM	> 84 µM	22.6 µM	> 66.8 µM
CNCCNc1nc2ccccc2c2c(=O)c3cc(F)ccc3sc12	1.52 µM	3.3 µM	1.48 µM	3.21 µM	1.74 µM	3.57 µM	1.83 µM	4.31 µM	1.66 µM	3.24 µM	1.39 µM	2.81 µM	1.38 µM	2.77 µM	1.8 µM	3.66 µM
CC[C@]1(O)C[C@@H]2CN(CCc3c([nH]c4ccccc34)[C@@](C(=O)OC)(c3cc4c(cc3OC)N(C)[C@H]3[C@@](O)(C(N)=O)[C@H](O)[C@]5(CC)[C@@H]6C[C@@H]6CN6CC[C@]43[C@@H]65)C2)C1	< 0.00333 µM	> 33.3 µM	0.00694 µM	> 33.3 µM	0.0624 µM	> 33.3 µM	< 0.00333 µM	10.2 µM	< 0.00333 µM	> 33.3 µM	0.548 µM	> 33.3 µM	1.12 µM	> 33.3 µM	0.0931 µM	> 33.3 µM
COC(=O)c1ccc2c(c1)C(=O)c1c-2n(CCCN)c(=O)c2cc(OC)c(OC)cc12	8.73 µM	> 51.4 µM	6.09 µM	> 52.9 µM	17.7 µM	38.6 µM	1.98 µM	4.39 µM	7.9 µM	24.4 µM	21 µM	> 56.2 µM	18.6 µM	37.2 µM	19.8 µM	40 µM
C/C(=C(/c1ccc(O)cc1)c1ccc(Cl)cc1)c1ccccc1	0.721 µM	2.56 µM	0.546 µM	1.37 µM	0.698 µM	2.12 µM	0.92 µM	7.98 µM	0.8 µM	2.78 µM	0.509 µM	1.57 µM	0.781 µM	2.68 µM	0.66 µM	2.61 µM
Cc1cnc(Nc2ccc(OCCN3CCCC3)cc2)nc1Nc1cccc(S(=O)(=O)NC(C)(C)C)c1	0.383 µM and 1.55 µM	> 51 µM	0.305 µM and 0.848 µM	9.5 µM and > 8.68 µM		12.9 µM and > 10 µM	0.247 µM and 0.502 µM	2.34 µM and 5.11 µM	0.228 µM and 0.946 µM	3.54 µM and > 7.42 µM	0.221 µM and 0.656 µM	1.99 µM and 2.44 µM	1.11 µM		0.671 µM and 0.967 µM	21.3 µM and > 10 µM
COc1cc(/C=C2\CC3C4CC=C5C[C@@H](O)CC[C@]5(C)C4CC[C@]3(C)C2=O)ccc1OCCCn1ccnc1 (stereo partly drawn)	> 100 µM	> 100 µM	19.4 µM	34.1 µM	17 µM	47.4 µM	24.1 µM	41.9 µM	24.4 µM	52.9 µM	19.6 µM	55.2 µM	19.1 µM	39.8 µM	41.5 µM	> 100 µM
COC(=O)c1cc(-c2ccc(OC)cc2)[nH]c1N/N=C/c1c(Cl)cccc1Cl	0.261 µM	3.78 µM	0.275 µM	4.71 µM	0.224 µM	3.23 µM	0.0909 µM	1.18 µM	0.26 µM	97.5 µM	0.287 µM	2.55 µM	0.351 µM	15.5 µM	0.659 µM	> 53.6 µM
NNS(=O)(=O)c1cc(C(=O)O)cc(C(=O)O)c1		> 100 µM		> 100 µM		> 100 µM		> 100 µM		> 100 µM		> 100 µM		> 100 µM		> 100 µM
